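48-hour exposure; five concentrations; linearly interpolated endpoints. At the TGI there is no net growth.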
Columns and labels:
Experiment in all cases: inhibition of tumour cell growth, NCI panel, 48 h
786-0 renal = test system: 786-0 renal
DU-145 prostate = test system: DU-145 prostate
HCC-2998 colon = test system: HCC-2998 colon
HCT-116 colon = test system: HCT-116 colon
HS 578T breast = test system: HS 578T breast
M14 melanoma = test system: M14 melanoma
MDA-MB-435 = test system: MDA-MB-435
NCI-H522 lung = test system: NCI-H522 lung
NCI/ADR-RES ovarian = test system: NCI/ADR-RES ovarian
SK-MEL-5 melanoma = test system: SK-MEL-5 melanoma
SN12C renal = test system: SN12C renal
SW-620 colon = test system: SW-620 colon

Row | Compound | TGI (786-0 renal) [µM] | TGI (DU-145 prostate) [µM] | TGI (HCC-2998 colon) [µM] | TGI (HCT-116 colon) [µM] | TGI (HS 578T breast) [µM] | TGI (M14 melanoma) [µM] | TGI (MDA-MB-435) [µM] | TGI (NCI-H522 lung) [µM] | TGI (NCI/ADR-RES ovarian) [µM] | TGI (SK-MEL-5 melanoma) [µM] | TGI (SN12C renal) [µM] | TGI (SW-620 colon) [µM]
1 | N#Cc1cnn2c1n[n+]([O-])c1ccc(Cl)cc12 | > 100 | 28.5 | 3.46 | 22.7 | > 24.7 | 31.8 | 26.4 | 3.81 | > 32.3 | 25 | 20.7 | 29.6
2 | C[N+](C)(C)CC1Cc2ccccc2C1=O (stereo not given) | > 10 | > 10 | > 10 | 3.11 | > 10 | > 6.99 | > 10 | 4.56 | > 6.85 | > 10 | > 10 | 3.84
3 | Cc1sc2ncnc(NCCc3ccccc3)c2c1C | 45.7 | 70.9 | 31.1 | 24.9 | 63.6 | 41.3 | 34.6 | 25.1 | > 100 | 12.2 | 28.3 | > 100
4 | CSc1nc(=S)[nH]c2n[nH]c(C)c12 | > 100 | > 100 | > 100 | > 100 | > 100 | > 100 | > 100 | > 100 | > 100 | > 100 | > 100 | > 100
5 | O=C(Cc1ccccc1)N/N=C(/CCN1CCCC1)CC(c1ccccc1)c1c(O)c2ccccc2oc1=O (stereo not given) | > 100 | > 100 | > 100 | > 100 | > 100 | > 100 | > 100 | > 100 | > 100 | > 100 |  | > 100
6 | CC(=O)c1c2c(cc3c1CC1(Cc4cc5c(cc4C1)CCC5)C3)CCC2 | > 100 | > 100 | > 100 | > 100 | > 100 | > 100 | > 100 | > 100 | > 100 | > 100 |  | > 100
7 | C1CSCC2(COC2)CS1 |  | > 100 | > 100 | > 100 | > 100 |  | > 100 | > 100 | > 100 | > 100 | > 100 | > 100
8 | CCOC(=O)CNC(=O)C(CSC(=O)N(O)c1ccc(Br)cc1)NC(=O)CCC(N)C(=O)OCC (stereo not given) | > 50 | > 50 | > 50 | > 50 | > 50 | > 50 | > 50 | > 50 | > 50 | > 50 | > 50 | > 50
9 | O=C1/C(=C/c2cccc([N+](=O)[O-])c2)CCCc2ccccc21 | 26.6 | 28.2 | 22 | 17.2 | 25.9 | 26.7 | 21.4 | 19.9 | 23.8 |  | 33.1 | 17
10 | COc1ccc(/C=C/C(=O)NCC(NC(=O)/C=C/c2ccc(OC)c(OC)c2)C(=O)O)cc1OC (stereo not given) | > 100 | > 100 | > 100 | > 100 | > 100 | > 100 | > 100 | > 100 | 0.0691 | > 100 | > 100 | > 100
11 | O=C1C(NCCc2cc(Br)c(O)c(Br)c2)=CC(=O)c2ncccc21 | 34.4 | 12 | 26 | 12.4 | 9.2 | 8.36 | 3.09 | 12.1 | 49.5 | 2.83 | 14.7 | > 57.7
12 | CN(CCO)CC(=O)CC(O)(C(F)(F)F)C(F)(F)F | > 100 | > 100 | > 100 | > 100 | 58.7 | > 100 | > 100 | > 100 | > 100 | 31.8 |  | > 100
13 | CCCCCCC(N)(CCCCCC)C(=O)Nn1c(C)ccc1C | > 100 | > 100 | > 100 | > 100 | > 100 | > 100 | > 100 | > 100 | > 100 | > 100 | > 100 | > 100
14 | Cc1ccc2c(ccc3c[n+]4ccccc4c(C)c32)c1 | 19.1 | 26.6 | 17.9 | 27.2 | 15.3 | 20.9 | 17.1 | 10.7 | > 100 | 2.47 | 3.46 | 22.8
15 | O=C(Nc1ccccc1)N1CCNC1=S | > 100 | > 100 | 85.8 | > 100 | > 100 | > 100 | > 100 | > 100 | > 100 | > 100 | > 100 | > 100
16 | CC(=O)Nc1c(C)cc(OCC(=O)O)cc1C | > 100 | > 100 | > 100 | > 100 | > 100 | > 100 | > 100 | > 100 | > 100 | > 100 | > 100 | > 100
17 | CCCCCCCCCC(=O)OCC1(CO)C/C(=C/CC(C(C)C)C(C)C)C(=O)O1 (stereo not given) | > 100 | > 100 | > 100 | > 100 | > 100 | > 100 | > 100 | 39.8 | > 100 | > 100 | > 100 | 81.6
18 | O=C(CNC(=O)OCc1ccccc1)NCCCCC(NC(=O)OCc1ccccc1)C(=O)O (stereo not given) | > 100 | > 100 | > 100 | > 100 | > 100 | > 100 | > 100 | > 100 | > 100 | > 100 | > 100 | > 100
